Test results from patent EP2289553A1 (ETH Zurich, priority 2009, dated 2011).
Where two headings read alike, the source gives them in different places.

Assays:
[1] = Dispersant binding reversibility: successive filtrations and re-dispersions in HEPES, followed by DLS; assay type: physicochemical; conditions: room temperature, anchor named, coupled to PEG(MW 5 kDa)
Experimental: DLS: DLS experiments were run on a Zetasizer Nano ZS (Malvern, UK) in the 173° backscattering mode. Because intensity weighted diameters scale with r^6 and thus large particles are predominant, volume weighted data which scale with r^3 were analyzed using the multiple narrow modes evaluation incorporated into the Malvern software. Temperature dependent DLS experiments have been performed in HEPES at an iron oxide nanoparticle concentration of 200 µg/ml. Solutions were filtered with 200 nm Minisart syringe filters (Sartorius, Germany) prior to DLS analysis. These suspensions were heated from 25 to 90°C in 5°C steps with 10 min equilibration time before the respective DLS experiment. The dispersant binding reversibility was tested on iron oxide nanoparticle HEPES solutions (500 µg/ml) at room temperature. Solutions were repeatedly filtered using Microcon filters with a cut-off of 30 kDa (Millipore, MA, USA) by centrifuging these solutions at […] for 20 min (MiniSpin, Vaudaux Eppendorf, Switzerland). After filtration, the filter cake was re-suspended in HEPES (0.5 ml) and equilibrated for 24 h at room temperature before the next DLS experiment was performed.
The binding reversibility of these dispersants was tested by successive filtrations and re-dispersions of the resulting iron oxide nanoparticle filter cakes in HEPES

[2] = pKa determination by titration; assay type: physicochemical; conditions: titration in Millipore water containing 150 mM NaCl, for nitrocatechols and mimosine one of the pKa values
Experimental: pKa determination: 2 mM of the respective anchoring group was dissolved in Millipore water containing 150 mM NaCl. These solutions were titrated with 0.1 M HCl and NaOH respectively using a SevenMulti pH meter (Mettler Toledo, Switzerland).

Compound | number of filtrations for which nanoparticles remained stable [1] | pKa ([2]; read-out: pKa) | number of filtrations within which nanoparticles agglomerated [1] | pKa [2]
NC(Cc1cc(O)c(O)cc1[N+](=O)[O-])C(=O)O (stereo not shown) | more than 9 filtrations | ~6.5 | – | –
N[C@@H](Cc1ccc(O)c(O)c1)C(=O)O [DOPA] | – | > 9 | 5-7 filtrations | –
NCCc1ccc(O)c(O)c1 [dopamine] | – | > 9 | 0-3 filtrations | –
NC(Cn1ccc(=O)c(O)c1)C(=O)O (stereo not shown) [mimosine] | – | ~6.5 | 5-7 filtrations | –
NCCc1cc(O)c(O)cc1[N+](=O)[O-] [nitrodopamine] | – | – | – | around 6.5
hydroxydopamine | – | – | 0-3 filtrations | > 9
hydroxypyridine | – | – | 0-3 filtrations | –
hydroxypyrone | – | – | 0-3 filtrations | –
